≈ marks a conversion by molar mass, not a printed value.
System: Mycobacterium tuberculosis 331/88 (H37Rv)
Test: In vitro antimycobacterial MIC, M. tuberculosis
Type: cell-based
Conditions: 336 h, 14 d incubation, read-out: MIC Mtb. 331/88 14 d

Structure (SMILES)	MIC
O=[N+]([O-])c1ccc(C=Nc2ccc(S(=O)(=O)Nc3ncccn3)cc2)o1 [Compound 2q, 4-{[(5-Nitrofuran-2-yl)methylene]amino}-N-(pyrimidin-2-yl)benzenesulfonamide]	125 µM (≈ 46.7 µg/mL)

Same assay, conditions: 504 h, 21 d incubation, read-out: MIC Mtb. 331/88 21 d

Structure (SMILES)	MIC
O=[N+]([O-])c1ccc(C=Nc2ccc(S(=O)(=O)Nc3ncccn3)cc2)o1 [Compound 2q, 4-{[(5-Nitrofuran-2-yl)methylene]amino}-N-(pyrimidin-2-yl)benzenesulfonamide]	125 µM (≈ 46.7 µg/mL)

System: Staphylococcus epidermidis H 6966/08
Test: Antibacterial microdilution broth MIC, S. epidermidis
Type: cell-based
Conditions: Staphylococcus epidermidis, H6966/08; 48 h incubation; read-out: MIC SE 48 h

Structure (SMILES)	MIC
O=[N+]([O-])c1ccc(C=Nc2ccc(S(=O)(=O)Nc3ncccn3)cc2)o1 [Compound 2q, 4-{[(5-Nitrofuran-2-yl)methylene]amino}-N-(pyrimidin-2-yl)benzenesulfonamide]	31.2 µM (≈ 11.7 µg/mL)

Same assay, conditions: Staphylococcus epidermidis, H6966/08; incubation time not given; read-out: MIC for S. epidermidis

Structure (SMILES)	MIC
O=[N+]([O-])c1ccc(C=Nc2ccc(S(=O)(=O)Nc3ncccn3)cc2)o1 [Compound 2q, 4-{[(5-Nitrofuran-2-yl)methylene]amino}-N-(pyrimidin-2-yl)benzenesulfonamide]	31.2 µM (≈ 11.7 µg/mL)

System: Aspergillus fumigatus 231
Test: Antifungal microdilution broth MIC, A. fumigatus
Type: cell-based
Conditions: Aspergillus fumigatus, 231; 48 h incubation; read-out: MIC AF 48 h

Structure (SMILES)	MIC
O=[N+]([O-])c1ccc(C=Nc2ccc(S(=O)(=O)Nc3ncccn3)cc2)o1 [Compound 2q, 4-{[(5-Nitrofuran-2-yl)methylene]amino}-N-(pyrimidin-2-yl)benzenesulfonamide]	500 µM (≈ 187 µg/mL)

System: Staphylococcus aureus CCM 4516/08
Test: Antibacterial microdilution broth MIC, S. aureus
Type: cell-based
Conditions: Staphylococcus aureus, CCM4516, 24 h, read-out: MIC SA 24 h

Structure (SMILES)	MIC
O=[N+]([O-])c1ccc(C=Nc2ccc(S(=O)(=O)Nc3ncccn3)cc2)o1 [Compound 2q, 4-{[(5-Nitrofuran-2-yl)methylene]amino}-N-(pyrimidin-2-yl)benzenesulfonamide]	125 µM (≈ 46.7 µg/mL)

Same assay, conditions: Staphylococcus aureus, CCM4516, 48 h, read-out: MIC SA 48 h

Structure (SMILES)	MIC
O=[N+]([O-])c1ccc(C=Nc2ccc(S(=O)(=O)Nc3ncccn3)cc2)o1 [Compound 2q, 4-{[(5-Nitrofuran-2-yl)methylene]amino}-N-(pyrimidin-2-yl)benzenesulfonamide]	125 µM (≈ 46.7 µg/mL)

System: Mycobacterium kansasii 235/80
Test: In vitro antimycobacterial MIC, M. kansasii 235/80
Type: cell-based
Conditions: 235/80, 168 h, 7 d incubation, read-out: MIC M. kansasii 235/80 7 d

Structure (SMILES)	MIC
O=[N+]([O-])c1ccc(C=Nc2ccc(S(=O)(=O)Nc3ncccn3)cc2)o1 [Compound 2q, 4-{[(5-Nitrofuran-2-yl)methylene]amino}-N-(pyrimidin-2-yl)benzenesulfonamide]	125 µM (≈ 46.7 µg/mL)

Same assay, conditions: 235/80, 336 h, 14 d incubation, read-out: MIC M. kansasii 235/80 14 d

Structure (SMILES)	MIC
O=[N+]([O-])c1ccc(C=Nc2ccc(S(=O)(=O)Nc3ncccn3)cc2)o1 [Compound 2q, 4-{[(5-Nitrofuran-2-yl)methylene]amino}-N-(pyrimidin-2-yl)benzenesulfonamide]	250 µM (≈ 93.3 µg/mL)

Same assay, conditions: 235/80, 504 h, 21 d incubation, read-out: MIC M. kansasii 235/80 21 d

Structure (SMILES)	MIC
O=[N+]([O-])c1ccc(C=Nc2ccc(S(=O)(=O)Nc3ncccn3)cc2)o1 [Compound 2q, 4-{[(5-Nitrofuran-2-yl)methylene]amino}-N-(pyrimidin-2-yl)benzenesulfonamide]	250 µM (≈ 93.3 µg/mL)

System: Enterococcus faecalis J 14365/08
Test: Antibacterial microdilution broth MIC, E. faecalis
Type: cell-based
Conditions: Enterococcus faecalis, J14365/08; 48 h incubation; read-out: MIC EF 48 h

Structure (SMILES)	MIC
O=[N+]([O-])c1ccc(C=Nc2ccc(S(=O)(=O)Nc3ncccn3)cc2)o1 [Compound 2q, 4-{[(5-Nitrofuran-2-yl)methylene]amino}-N-(pyrimidin-2-yl)benzenesulfonamide]	> 500 µM

System: M. tuberculosis and NTM
Test: Antimycobacterial activity, panel
Type: cell-based
Conditions: Mycobacterium tuberculosis; range over all four mycobacterial strains and incubation times; read-out: MIC, M. tuberculosis and NTM

Structure (SMILES)	MIC
O=[N+]([O-])c1ccc(C=Nc2ccc(S(=O)(=O)Nc3ncccn3)cc2)o1 [Compound 2q, 4-{[(5-Nitrofuran-2-yl)methylene]amino}-N-(pyrimidin-2-yl)benzenesulfonamide]	≥ 62.5 µM

System: Lichtheimia corymbifera 272
Test: Antifungal microdilution broth MIC, L. corymbifera
Type: cell-based
Conditions: Lichtheimia corymbifera, 272; 48 h incubation; read-out: MIC LC 48 h

Structure (SMILES)	MIC
O=[N+]([O-])c1ccc(C=Nc2ccc(S(=O)(=O)Nc3ncccn3)cc2)o1 [Compound 2q, 4-{[(5-Nitrofuran-2-yl)methylene]amino}-N-(pyrimidin-2-yl)benzenesulfonamide]	> 500 µM

System: Candida krusei E28
Test: Antifungal microdilution broth MIC, C. krusei
Type: cell-based
Conditions: Pichia kudriavzevii, E28; 48 h incubation; read-out: MIC CK 48 h

Structure (SMILES)	MIC
O=[N+]([O-])c1ccc(C=Nc2ccc(S(=O)(=O)Nc3ncccn3)cc2)o1 [Compound 2q, 4-{[(5-Nitrofuran-2-yl)methylene]amino}-N-(pyrimidin-2-yl)benzenesulfonamide]	250 µM (≈ 93.3 µg/mL)

System: ESBL-positive Klebsiella pneumoniae J 14368/08
Test: not given
Conditions: 24 h

Structure (SMILES)	MIC KP-E 24 h
O=[N+]([O-])c1ccc(C=Nc2ccc(S(=O)(=O)Nc3ncccn3)cc2)o1 [Compound 2q, 4-{[(5-Nitrofuran-2-yl)methylene]amino}-N-(pyrimidin-2-yl)benzenesulfonamide]	500 µM (≈ 187 µg/mL)

Same assay, conditions: 48 h

Structure (SMILES)	MIC KP-E 48 h
O=[N+]([O-])c1ccc(C=Nc2ccc(S(=O)(=O)Nc3ncccn3)cc2)o1 [Compound 2q, 4-{[(5-Nitrofuran-2-yl)methylene]amino}-N-(pyrimidin-2-yl)benzenesulfonamide]	500 µM (≈ 187 µg/mL)

System: Pseudomonas aeruginosa CCM 1961
Test: Antibacterial microdilution broth MIC, P. aeruginosa
Type: cell-based
Conditions: Pseudomonas aeruginosa, CCM1961; 48 h incubation; read-out: MIC PA 48 h

Structure (SMILES)	MIC
O=[N+]([O-])c1ccc(C=Nc2ccc(S(=O)(=O)Nc3ncccn3)cc2)o1 [Compound 2q, 4-{[(5-Nitrofuran-2-yl)methylene]amino}-N-(pyrimidin-2-yl)benzenesulfonamide]	250 µM (≈ 93.3 µg/mL)

System: Candida albicans ATCC 44859
Test: Antifungal microdilution broth MIC, C. albicans
Type: cell-based
Conditions: ATCC44859, 48 h incubation, read-out: MIC CA 48 h

Structure (SMILES)	MIC
O=[N+]([O-])c1ccc(C=Nc2ccc(S(=O)(=O)Nc3ncccn3)cc2)o1 [Compound 2q, 4-{[(5-Nitrofuran-2-yl)methylene]amino}-N-(pyrimidin-2-yl)benzenesulfonamide]	250 µM (≈ 93.3 µg/mL)

System: Trichophyton interdigitale 445
Test: Antifungal microdilution broth MIC, T. interdigitale
Type: cell-based
Conditions: Trichophyton interdigitale, 445; 72 h incubation; read-out: MIC TI 72 h

Structure (SMILES)	MIC
O=[N+]([O-])c1ccc(C=Nc2ccc(S(=O)(=O)Nc3ncccn3)cc2)o1 [Compound 2q, 4-{[(5-Nitrofuran-2-yl)methylene]amino}-N-(pyrimidin-2-yl)benzenesulfonamide]	250 µM (≈ 93.3 µg/mL)

Same assay, conditions: Trichophyton interdigitale, 445; 120 h incubation; read-out: MIC TI 120 h

Structure (SMILES)	MIC
O=[N+]([O-])c1ccc(C=Nc2ccc(S(=O)(=O)Nc3ncccn3)cc2)o1 [Compound 2q, 4-{[(5-Nitrofuran-2-yl)methylene]amino}-N-(pyrimidin-2-yl)benzenesulfonamide]	250 µM (≈ 93.3 µg/mL)

System: Candida glabrata 20/I
Test: Antifungal microdilution broth MIC, C. glabrata
Type: cell-based
Conditions: Nakaseomyces glabratus, 48 h incubation, read-out: MIC CG 48 h

Structure (SMILES)	MIC
O=[N+]([O-])c1ccc(C=Nc2ccc(S(=O)(=O)Nc3ncccn3)cc2)o1 [Compound 2q, 4-{[(5-Nitrofuran-2-yl)methylene]amino}-N-(pyrimidin-2-yl)benzenesulfonamide]	250 µM (≈ 93.3 µg/mL)

System: Trichosporon asahii 1188
Test: Antifungal microdilution broth MIC, T. asahii
Type: cell-based
Conditions: Trichosporon asahii, 1188; 48 h incubation; read-out: MIC TA 48 h

Structure (SMILES)	MIC
O=[N+]([O-])c1ccc(C=Nc2ccc(S(=O)(=O)Nc3ncccn3)cc2)o1 [Compound 2q, 4-{[(5-Nitrofuran-2-yl)methylene]amino}-N-(pyrimidin-2-yl)benzenesulfonamide]	500 µM (≈ 187 µg/mL)

System: M. kansasii 6509/96
Test: In vitro antimycobacterial MIC, M. kansasii clinical isolate
Type: cell-based
Conditions: Mycobacterium kansasii, 6509/96, 168 h; 7 d incubation; read-out: MIC M. kansasii 6509/96 7 d

Structure (SMILES)	MIC
O=[N+]([O-])c1ccc(C=Nc2ccc(S(=O)(=O)Nc3ncccn3)cc2)o1 [Compound 2q, 4-{[(5-Nitrofuran-2-yl)methylene]amino}-N-(pyrimidin-2-yl)benzenesulfonamide]	62.5 µM (≈ 23.3 µg/mL)

Same assay, conditions: Mycobacterium kansasii, 6509/96, 336 h; 14 d incubation; read-out: MIC M. kansasii 6509/96 14 d

Structure (SMILES)	MIC
O=[N+]([O-])c1ccc(C=Nc2ccc(S(=O)(=O)Nc3ncccn3)cc2)o1 [Compound 2q, 4-{[(5-Nitrofuran-2-yl)methylene]amino}-N-(pyrimidin-2-yl)benzenesulfonamide]	62.5 µM (≈ 23.3 µg/mL)

Same assay, conditions: Mycobacterium kansasii, 6509/96, 504 h; 21 d incubation; read-out: MIC M. kansasii 6509/96 21 d

Structure (SMILES)	MIC
O=[N+]([O-])c1ccc(C=Nc2ccc(S(=O)(=O)Nc3ncccn3)cc2)o1 [Compound 2q, 4-{[(5-Nitrofuran-2-yl)methylene]amino}-N-(pyrimidin-2-yl)benzenesulfonamide]	125 µM (≈ 46.7 µg/mL)

System: Escherichia coli CCM 4517
Test: Antibacterial microdilution broth MIC, E. coli
Type: cell-based
Conditions: Escherichia coli, CCM4517; 48 h incubation; read-out: MIC EC 48 h

Structure (SMILES)	MIC
O=[N+]([O-])c1ccc(C=Nc2ccc(S(=O)(=O)Nc3ncccn3)cc2)o1 [Compound 2q, 4-{[(5-Nitrofuran-2-yl)methylene]amino}-N-(pyrimidin-2-yl)benzenesulfonamide]	> 500 µM

System: Klebsiella pneumoniae D 11750/08
Test: not given
Conditions: 24 h

Structure (SMILES)	MIC KP 24 h
O=[N+]([O-])c1ccc(C=Nc2ccc(S(=O)(=O)Nc3ncccn3)cc2)o1 [Compound 2q, 4-{[(5-Nitrofuran-2-yl)methylene]amino}-N-(pyrimidin-2-yl)benzenesulfonamide]	500 µM (≈ 187 µg/mL)

Same assay, conditions: 48 h

Structure (SMILES)	MIC KP 48 h
O=[N+]([O-])c1ccc(C=Nc2ccc(S(=O)(=O)Nc3ncccn3)cc2)o1 [Compound 2q, 4-{[(5-Nitrofuran-2-yl)methylene]amino}-N-(pyrimidin-2-yl)benzenesulfonamide]	500 µM (≈ 187 µg/mL)

System: Candida tropicalis 156
Test: Antifungal microdilution broth MIC, C. tropicalis
Type: cell-based
Conditions: Candida tropicalis, 156; 48 h incubation; read-out: MIC CT 48 h

Structure (SMILES)	MIC
O=[N+]([O-])c1ccc(C=Nc2ccc(S(=O)(=O)Nc3ncccn3)cc2)o1 [Compound 2q, 4-{[(5-Nitrofuran-2-yl)methylene]amino}-N-(pyrimidin-2-yl)benzenesulfonamide]	250 µM (≈ 93.3 µg/mL)

System: Mycobacterium avium 330/88
Test: In vitro antimycobacterial MIC, M. avium
Type: cell-based
Conditions: 330/88, 336 h, 14 d incubation, read-out: MIC M. avium 330/88 14 d

Structure (SMILES)	MIC
O=[N+]([O-])c1ccc(C=Nc2ccc(S(=O)(=O)Nc3ncccn3)cc2)o1 [Compound 2q, 4-{[(5-Nitrofuran-2-yl)methylene]amino}-N-(pyrimidin-2-yl)benzenesulfonamide]	500 µM (≈ 187 µg/mL)

Same assay, conditions: 330/88, 504 h, 21 d incubation, read-out: MIC M. avium 330/88 21 d

Structure (SMILES)	MIC
O=[N+]([O-])c1ccc(C=Nc2ccc(S(=O)(=O)Nc3ncccn3)cc2)o1 [Compound 2q, 4-{[(5-Nitrofuran-2-yl)methylene]amino}-N-(pyrimidin-2-yl)benzenesulfonamide]	500 µM (≈ 187 µg/mL)

Source: PMC6151383 (Molecules : A Journal of Synthetic Chemistry and Natural …, 2017)
